Measurements taken from patent EP4786487A1, “PEPTIDE” (Peptidream Inc, priority 2023, dated 2025).
Like-named read-outs stand apart in the source and are kept apart here. Starred links: 1 amine or outer side, 2 acyl side, 3 side chain; linkers in the order of their positions; H or OH if unused. Positions of bridges follow the written chain, without caps; N, C: chain ends. Non-standard residues stand in square brackets, D forms with d. Residues, ends and D or L forms follow the SMILES beside them. Groups on a side chain read outwards from the residue. *: point of attachment. Phe(3-OCH2COOH) = N[C@@H](Cc1cccc(OCC(=O)O)c1)C(=O)O; Piperidine(4-CH2CH2CONH2) = NC(=O)CCC1CCN(*)CC1; Phe(4-COOH) = N[C@@H](Cc1ccc(C(=O)O)cc1)C(=O)O; Piperazinyl(4-CH2COOH) = O=C(O)CN1CCN(*)CC1; Piperidinyl(4-CH2COOH) = O=C(O)CC1CCN(*)CC1; Gly(N(CH2)3COOH) = O=C(O)CCCNCC(=O)O; X1 = CCCCCCC[C@H](N[*:1])C(=O)[*:2]; NMeF = CN[C@@H](Cc1ccccc1)C(=O)O; dAad = N[C@H](CCCC(=O)O)C(=O)O; dNMeC = CN[C@H](CS)C(=O)O; NMeA = CN[C@@H](C)C(=O)O; X9 = NC(=O)CC1CCN(*)CC1; CO = O=C([*:1])[*:2]; Inp = O=C(O)C1CCNCC1; Sar = CNCC(=O)O

Legend:
GDF-11 = molecular target: T1, GDF-11 (Homo sapiens, UniProt O95390); test: HepG2 reporter gene assay, Evaluation Procedure (2): 2-concentrations assay, GDF-11 inhibition; format: cell-based; settings: read-out: inhibition rate (GDF-11 inhibition assay)
T1 construct: purchased R&D systems 1958-GD-G8/CF
T1 sequence (O95390 299-407): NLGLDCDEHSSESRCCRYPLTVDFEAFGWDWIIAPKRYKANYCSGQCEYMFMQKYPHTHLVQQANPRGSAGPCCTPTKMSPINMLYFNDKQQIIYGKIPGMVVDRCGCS
Procedure, shortened: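 HepG2 cells carrying the transfected pGL3(CAGA)12-luc reporter, a pGL3 vector with luciferase placed downstream of 12 CAGA repeats, were stimulated with GDF-11 at a final 10 ng/mL together with test peptide. Blank wells received no GDF-11 and no peptide. Plates were incubated 20 to 24 hours at 37°C with 5% CO2. Luminescence from One-Glo substrate was read to calculate percent inhibition.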

Myostatin = molecular target: T2, Myostatin (Homo sapiens, UniProt O14793); test: HepG2 reporter gene assay, Evaluation Procedure (2): 2-concentrations assay, myostatin inhibition; format: cell-based; settings: Table 7-3/7-4, myostatin 10 ng/mL, HepG2, read-out: inhibition rate (myostatin inhibition assay); for inhibition at 0.1 µM: peptide at the higher of the 2 concentrations; for inhibition at 0.03 µM: peptide at the lower of the 2 concentrations
T2 construct: active myostatin (also called mature myostatin) is a homodimer consisting of two C-terminal growth factor domains; purchased R&D systems 788-G8/CF
T2 sequence (O14793 267-375): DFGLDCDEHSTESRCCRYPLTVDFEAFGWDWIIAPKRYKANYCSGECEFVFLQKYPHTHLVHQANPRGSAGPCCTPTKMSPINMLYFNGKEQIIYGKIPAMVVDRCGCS
Procedure, shortened: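 HepG2 cells (HB-8065, ATCC) carrying the transfected pGL3(CAGA)12-luc reporter plasmid were treated with myostatin (788-G8/CF, R&D systems) at a final concentration of 10 ng/mL plus peptide and incubated at 37°C, 5% CO2 for 20 to 24 hours. Luminescence was read after adding PBS mixed 1:1 with One-Glo substrate, and inhibition rate was calculated.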

[1] = HepG2, first GDF-11 column of Table 7-3/7-4, GDF-11 10 ng/mL, peptide at the lower of the 2 concentrations
[2] = HepG2, second GDF-11 column of Table 7-3/7-4, GDF-11 10 ng/mL, peptide at the higher of the 2 concentrations

Compound | inhibition (GDF-11; [1]) | inhibition (GDF-11; [2]) | inhibition at 0.1 µM (Myostatin) | inhibition at 0.03 µM (Myostatin)
CCCCCCC[C@@H]1NC(=O)[C@H](Cc2ccccc2)N(C)C(=O)[C@H](CCCNC(=N)N)NC(=O)[C@H](Cc2ccc(C(=O)O)cc2)NC(=O)[C@H](Cc2cccc(OCC(=O)O)c2)NC(=O)CN(C)C(=O)[C@H]([C@@H](C)CC)NC(=O)[C@H](Cc2ccccc2)N(C)C(=O)[C@H](Cc2ccc(O)cc2)NC(=O)[C@H](Cc2c[nH]c3ccccc23)NC(=O)[C@H](C)NC(=O)[C@H](C)NC(=O)CSC[C@H](C(=O)N[C@@H](CCCCNC(=O)N2CCN(CC(=O)O)CC2)C(=O)O)NC(=O)[C@H](Cc2ccccc2)N(C)C(=O)[C@H](C)N(C)C1=O [Myostatin_99_v427] ({CH2CO}-AAWY[NMeF]I[Sar][Phe(3-OCH2COOH)][Phe(4-COOH)]R[NMeF][X1][NMeA][NMeF][dC]K([CO-Piperazinyl(4-CH2COOH)])-OH; thioether N-15) | 0% | 0% | 100% | 98%
CCCCCCC[C@@H]1NC(=O)[C@H](Cc2ccccc2)N(C)C(=O)[C@H](CCCNC(=N)N)NC(=O)[C@H](Cc2ccc(C(=O)O)cc2)NC(=O)[C@H](Cc2cccc(OCC(=O)O)c2)NC(=O)[C@H](C)N(C)C(=O)[C@H]([C@@H](C)CC)NC(=O)[C@H](Cc2ccccc2)N(C)C(=O)[C@H](Cc2ccc(O)cc2)NC(=O)[C@H](Cc2c[nH]c3ccccc23)NC(=O)[C@H](C)NC(=O)CN(CCCC(=O)O)C(=O)CSC[C@H](C(=O)N[C@@H](CCCCNC(=O)N2CCN(CC(=O)O)CC2)C(=O)O)NC(=O)[C@H](Cc2ccccc2)N(C)C(=O)[C@H](C)N(C)C1=O [Myostatin_99_v428] ({CH2CO}-[Gly(N(CH2)3COOH)]AWY[NMeF]I[NMeA][Phe(3-OCH2COOH)][Phe(4-COOH)]R[NMeF][X1][NMeA][NMeF][dC]K([CO-Piperazinyl(4-CH2COOH)])-OH; thioether N-15) | 0% | 0% | 99% | 96%
CCCCCCC[C@@H]1NC(=O)[C@H](Cc2ccccc2)N(C)C(=O)[C@H](CCCNC(=N)N)NC(=O)[C@H](Cc2ccc(C(=O)O)cc2)NC(=O)[C@H](Cc2cccc(OCC(=O)O)c2)NC(=O)[C@H](C)N(C)C(=O)[C@H]([C@@H](C)CC)NC(=O)[C@H](Cc2ccccc2)N(C)C(=O)[C@H](Cc2ccc(O)cc2)NC(=O)[C@H](Cc2c[nH]c3ccccc23)NC(=O)[C@H](C)NC(=O)CN(CCCC(=O)O)C(=O)CSC[C@H](C(=O)N2CCN(CC(=O)O)CC2)NC(=O)[C@H](Cc2ccccc2)N(C)C(=O)[C@H](C)N(C)C1=O [Myostatin_99_v429] ({CH2CO}-[Gly(N(CH2)3COOH)]AWY[NMeF]I[NMeA][Phe(3-OCH2COOH)][Phe(4-COOH)]R[NMeF][X1][NMeA][NMeF][dC]-{Piperazinyl(4-CH2COOH)}; thioether N-15) | 0% | 0% | 100% | 100%
CCCCCCC[C@@H]1NC(=O)[C@H](Cc2ccccc2)N(C)C(=O)[C@H](CCCNC(=N)N)NC(=O)[C@H](Cc2ccc(C(=O)O)cc2)NC(=O)[C@H](Cc2cccc(OCC(=O)O)c2)NC(=O)[C@H](C)N(C)C(=O)[C@H]([C@@H](C)CC)NC(=O)[C@H](Cc2ccccc2)N(C)C(=O)[C@H](Cc2ccc(O)cc2)NC(=O)[C@H](Cc2c[nH]c3ccccc23)NC(=O)[C@H](C)NC(=O)CN(CCCC(=O)O)C(=O)CSC[C@H](C(=O)N2CCC(CC(=O)O)CC2)NC(=O)[C@H](Cc2ccccc2)N(C)C(=O)[C@H](C)N(C)C1=O [Myostatin_99_v430] ({CH2CO}-[Gly(N(CH2)3COOH)]AWY[NMeF]I[NMeA][Phe(3-OCH2COOH)][Phe(4-COOH)]R[NMeF][X1][NMeA][NMeF][dC]-{Piperidinyl(4-CH2COOH)}; thioether N-15) | 0% | 0% | 100% | 100%
CCCCCCC[C@@H]1NC(=O)[C@H](Cc2ccccc2)N(C)C(=O)[C@H](CCCNC(=N)N)NC(=O)[C@H](Cc2ccc(C(=O)O)cc2)NC(=O)[C@H](Cc2cccc(OCC(=O)O)c2)NC(=O)[C@H](C)N(C)C(=O)[C@H]([C@@H](C)CC)NC(=O)[C@H](Cc2ccccc2)N(C)C(=O)[C@H](Cc2ccc(O)cc2)NC(=O)[C@H](Cc2c[nH]c3ccccc23)NC(=O)[C@H](C)NC(=O)CN(CCCC(=O)O)C(=O)CSC[C@H](C(=O)N2CCC(CCC(N)=O)CC2)NC(=O)[C@H](Cc2ccccc2)N(C)C(=O)[C@H](C)N(C)C1=O [Myostatin_99_v431] ({CH2CO}-[Gly(N(CH2)3COOH)]AWY[NMeF]I[NMeA][Phe(3-OCH2COOH)][Phe(4-COOH)]R[NMeF][X1][NMeA][NMeF][dC]-{Piperidine(4-CH2CH2CONH2)}; thioether N-15) | 0% | 0% | 100% | 100%
CCCCCCC[C@@H]1NC(=O)[C@H](Cc2ccccc2)N(C)C(=O)[C@H](CCCNC(=N)N)NC(=O)[C@H](Cc2ccc(C(=O)O)cc2)NC(=O)[C@H](Cc2cccc(OCC(=O)O)c2)NC(=O)[C@H](C)N(C)C(=O)[C@H]([C@@H](C)CC)NC(=O)[C@H](Cc2ccccc2)N(C)C(=O)[C@H](Cc2ccc(O)cc2)NC(=O)[C@H](Cc2c[nH]c3ccccc23)NC(=O)[C@H](C)NC(=O)CN(CCCC(=O)O)C(=O)CSC[C@H](C(=O)N2CCC(CC(N)=O)CC2)NC(=O)[C@H](Cc2ccccc2)N(C)C(=O)[C@H](C)N(C)C1=O [Myostatin_99_v432] ({CH2CO}-[Gly(N(CH2)3COOH)]AWY[NMeF]I[NMeA][Phe(3-OCH2COOH)][Phe(4-COOH)]R[NMeF][X1][NMeA][NMeF][dC]-X9; thioether N-15) | 0% | 0% | 100% | 100%

More lines, now with the values ahead:

inhibition (GDF-11; [1]) | inhibition (GDF-11; [2]) | inhibition at 0.1 µM (Myostatin) | inhibition at 0.03 µM (Myostatin) | Compound
0% | 0% | 100% | 100% | CCCCCCC[C@@H]1NC(=O)[C@H](Cc2ccccc2)N(C)C(=O)[C@H](CCCNC(=N)N)NC(=O)[C@H](Cc2ccc(C(=O)O)cc2)NC(=O)[C@H](Cc2cccc(OCC(=O)O)c2)NC(=O)[C@H](C)N(C)C(=O)[C@H]([C@@H](C)CC)NC(=O)[C@H](Cc2ccccc2)N(C)C(=O)[C@H](Cc2ccc(O)cc2)NC(=O)[C@H](Cc2c[nH]c3ccccc23)NC(=O)[C@H](C)NC(=O)CN(CCCC(=O)O)C(=O)CSC[C@H](C(=O)N2CCC(C(N)=O)CC2)NC(=O)[C@H](Cc2ccccc2)N(C)C(=O)[C@H](C)N(C)C1=O [Myostatin_99_v433] ({CH2CO}-[Gly(N(CH2)3COOH)]AWY[NMeF]I[NMeA][Phe(3-OCH2COOH)][Phe(4-COOH)]R[NMeF][X1][NMeA][NMeF][dC][Inp]-NH2; thioether N-15)
0% | 0% | 100% | 98% | CCCCCCC[C@@H]1NC(=O)[C@H](Cc2ccccc2)N(C)C(=O)[C@H](CCCNC(=N)N)NC(=O)[C@H](Cc2ccc(C(=O)O)cc2)NC(=O)[C@H](Cc2cccc(OCC(=O)O)c2)NC(=O)[C@H](C)N(C)C(=O)[C@H]([C@@H](C)CC)NC(=O)[C@H](Cc2ccccc2)N(C)C(=O)[C@H](Cc2ccc(O)cc2)NC(=O)[C@H](Cc2c[nH]c3ccccc23)NC(=O)[C@H](C)NC(=O)CN(CCCC(=O)O)C(=O)CCC[C@H](C(=O)O)NC(=O)[C@H](Cc2ccccc2)N(C)C(=O)[C@H](C)N(C)C1=O [Myostatin_99_v434] ([Gly(N(CH2)3COOH)]AWY[NMeF]I[NMeA][Phe(3-OCH2COOH)][Phe(4-COOH)]R[NMeF][X1][NMeA][NMeF][dAad]-OH; lactam N-15)
2% | 36% | 100% | 100% | CCCCCCC[C@@H]1NC(=O)[C@H](Cc2ccccc2)N(C)C(=O)[C@H](CCCNC(=N)N)NC(=O)[C@H](Cc2ccc(C(=O)O)cc2)NC(=O)[C@H](Cc2cccc(OCC(=O)O)c2)NC(=O)[C@H](C)N(C)C(=O)[C@H]([C@@H](C)CC)NC(=O)[C@H](Cc2ccccc2)N(C)C(=O)[C@H](Cc2ccc(O)cc2)NC(=O)[C@H](Cc2c[nH]c3ccccc23)NC(=O)[C@H](C)NC(=O)CN(CCCC(=O)O)C(=O)CSC[C@H](C(N)=O)N(C)C(=O)[C@H](Cc2ccccc2)N(C)C(=O)[C@H](C)N(C)C1=O [Myostatin_99_v439] ({CH2CO}-[Gly(N(CH2)3COOH)]AWY[NMeF]I[NMeA][Phe(3-OCH2COOH)][Phe(4-COOH)]R[NMeF][X1][NMeA][NMeF][dNMeC]-NH2; thioether N-15)
